The values below come from US10022342B2, “Methods and compositions for treating multiple myeloma” (Ohio State Innovation Foundation, priority 2015, dated 2018).

Structures are written as SMILES.

What all share (assay type): cell-based, human
In series [1] the test system is CD44 mRNA. The series is described as follows: CD44 mRNA by qRT-PCR in MM cells. On the procedure:
(§1) Reduction of CD44 mRNA and protein persisted for 48 hours after treatment (FIGS. 2C-2D and data not shown).
(§2) Quantitative real time-PCR (qRT-PCR) was performed with the TaqMan method (Applied Biosystems), according to the manufacturer's instructions, and analyzed with the 7900HT Sequence Detection System (Applied Biosystems). The appropriate TaqMan probes for mRNA, miRNA, and pri-miRNA quantification were purchased from Applied Biosystems, and all reactions were performed in triplicate. The following probes were used: hsa-miR-9-5p (000583), hsa-mir-9-1 (Hs03303201_pri), hsa-miR-9-2 (Hs03303202_pri), hsa-mir-9-3 (Hs03293595_pri), CD44 (Hs01075861_ml), IGF2BP3 (Hs00559907_g1). Simultaneous quantification of ornithine decarboxylase antizyme 1 (OAZ1), or GAPDH mRNAs were used as a reference for mRNA data normalization, while small endogenous nucleolar RNA U44/U48, or U6 were used for miRNA normalization. The relative expression levels were calculated by the comparative cycle threshold (Ct) method (User Bulletin #2; Applied Biosystems). Expression analyses of pre-miRNA was performed with SYBR green PCR master mix (Applied Biosystems) and normalized for U6 RNA. All primers used for amplification steps are listed in the Supplementary materials and methods.
A general note: Real-time PCR tracks product formation cycle by cycle.

For series [2], the system named is CD44. Briefly: CD44 protein by immunoblot in MM cells. To be noted: 24-hr treatment, dose-dependent, vs DMSO control. On the procedure: as §1
Cells were harvested by centrifugation, washed with PBS and lysed using buffer composed of 50 mM Tris (pH 7.5), 150 mM NaCl, 10% glycerol, 1.0% NP-40, 0.1% SDS, supplemented with protease and phosphatase inhibitors. Protein concentrations were estimated by Bradford assay and equivalent quantities of the lysates were resolved on 4-20% Tris-HCl SDS-PAGE TGX gels (Bio-Rad). Proteins were transferred to nitrocellulose membranes and stained for acetyl-histone H3 (Milipore), acetyl-histone H4 (Milipore), IGF2BP1 (Cell Signaling Technology), IGF2BP3 (IMP-3, Santa Cruz Biotechnology), CD44 (Santa Cruz Biotechnology), CD48 (Abcam), Drosha (Cell Signaling Technology), or glyceraldehyde 3-phosphate dehydrogenase (GAPDH, Cell Signaling Technology), followed by anti-mouse, or anti-rabbit IgG-HRP (GE Healthcare). Signals were developed using Pierce ECL Western Blotting Substrate (Thermo Fisher Scientific).
Background: In western blotting, separated proteins are transferred to a membrane and probed.

Series [3] has as its system pri-miR-9-1, pri-miR-9-2, pri-miR-9-3. The series is described as follows: pri-miR-9 primary transcripts by qRT-PCR in MM.1S cells. To be noted: vs controls. Here is the method: Because human miR-9-5p is encoded by three distinct genomic loci (i.e., primary (pri)-miR-9-1 on chromosome 1 (q22), pri-miR-9-2 on chromosome 5 (q14.3), and pri-miR-9-3 on chromosome 15 (q26.1)), the identity of the locus responsible for miR-9up-regulation in response to AR-42 was investigated.
as §2, with “All primers used for amplification steps are listed in the Supplementary materials and methods.” left out

The subject of series [4] is U266, RPMI, and MM1S cells. The series is described as follows: Apoptosis (annexin) and necrosis (propidium iodide) by HDAC inhibitors, FIG. 15. To be noted: 24 and 48 hours, 0.25, 0.5, and 1 μM. On the procedure: Apoptosis was measured by annexin staining while cell necrosis was measured by propidium iodide staining.
CD44 surface expression was analyzed by staining cells with CD44-FITC antibody (BD Biosciences) for 30 min. in the dark, at room temperature. Apoptosis was measured by Annexin V-FITC and Propidium Iodide (PI) (Clontech) staining for 15 min. in the dark, at room temperature and data immediately acquired on a Beckman Coulter FC500 (Beckman Coulter) machine. Analysis was conducted using the FlowJo Software vX.0.7 (Tree Star Inc.). For the multiparametric analysis, the bone marrow samples were stained with CD38-PE (347687; BD Bioscience), CD138-APC (347193; BD Bioscience), CD45-ECD (A07784; Beckman Coulter), CD44-FITC (BD Bioscience) and AnnexinV-FITC (Clontech) for 30 minutes, washed with PBS and immediately analyzed with Gallios cytometer (Beckman Coulter).

In the case of `CC(C)[C@H](C(=O)Nc1ccc(C(=O)NO)cc1)c1ccccc1` [AR-42, (S)-N-hydroxy-4-(3-methyl-2-phenylbutanamido)benzamide], the “persistence of reduction of CD44 mRNA and protein after treatment” value in series [1] was 48 h. In series [1] (24-hr treatment, dose-dependent, vs DMSO control), the “CD44 mRNA” value is “consistently downregulated”. Besides, the CD44 protein levels result in series [2] is given as “consistently downregulated”. Further, the “primary transcripts of miR-9-5p” value in series [3] is “dose dependent changes”. Further, in series [4], the “apoptosis (annexin staining)” value is on record as “highest level of apoptosis” and the “cell necrosis (propidium iodide staining)” value is recorded as “lowest levels of cell necrosis”.
